Results on seven compounds are retold here after patent US7700584B2 (Hangzhou Minsheng Pharmaceuticals Co., Ltd., priority 2004, dated 2010).

What all share (format): cell-based
Conditions in all cases: 50 μg/ml

Experiment [1] relates to U-937 human histocytic lymphoma. Briefly: In vitro inhibition rate to tumor cells (MTT), U-937. The protocol: (§1) (1) Single cell suspension was seeded into 96-well plates (×3) (the cells was diluted in the PRMI-1640 minimum medium to 3×10^4 cells/ml, […] diluted cells/well). […] The experiments were performed in quadruplicate.
(§2) (2) The medium was removed. Solutions of the anti-tumor agents (15 compounds) were prepared in a freshly prepared medium at the concentrations indicated in the following Table. […] of the solution was added into each well. Incubation was continued for 48 hours.
(§3) (3) […] of 2 mg/ml MTT was added into each well, and incubated for 4 hours.
(§4) (4) The medium was removed from the well. The microplates were swiftly turned down to throw-off the medium. […] DMSO was added into each well, and vortexed at room temperature for 10 minutes.
(§5) (5) OD value (λ=570 nm) was measured with an Enzyme-Linked Detector.
(§6) (6) The inhibition rates (IR) of cell growth were respectively calculated based on the following equation: IR(%)=[1−(average OD of the experimental group/average OD of the control group)]×100%

Experiment [2] concerns A-549 human lung adenocarcinoma. Briefly: In vitro inhibition rate to tumor cells (MTT), A-549. The protocol:
as §1, §2, §3, §4, §5, §6

Experiment [3] deals with Bel-7402 human hepatic carcinoma. Briefly: In vitro inhibition rate to tumor cells (MTT), Bel-7402. The protocol:
as §1, §2, §3, §4, §5, §6

Experiment [4] has as its system MCF-7 human mammary adenocarcinoma. Briefly: In vitro inhibition rate to tumor cells (MTT), MCF-7. The protocol: as §1, §2, §3, §4, §5, §6
Experiment [5] relates to SMMC-7721 human hepatic carcinoma. Briefly: In vitro inhibition rate to tumor cells (MTT), SMMC-7721. As for the experimental part:
as §1, §2, §3, §4, §5, §6

The subject of experiment [6] is HL-60 human promyelocytic leukemia. Briefly: In vitro inhibition rate to tumor cells (MTT), HL-60. The protocol:
as §1, §2, §3, §4, §5, §6

Experiment [7] deals with Hela human cervical carcinoma. Briefly: In vitro inhibition rate to tumor cells (MTT), Hela. As for the experimental part: as §1, §2, §3, §4, §5, §6
In experiment [8] the test system is LLC mouse Lewis lung carcinoma. Briefly: In vitro inhibition rate to tumor cells (MTT), LLC. As for the experimental part: as §1, §2, §3, §4, §5, §6

As for `CC(C)C1CC23OC1(O)CC(Br)(CBr)C2CCC3C` (stereo not shown) [Compound 30, Curcumol dibromide], the “inhibition rate, Results (%) U-937” value in experiment [1] (Table 1) is 13.25%; in experiment [1] (Table 2 (repeated screening)), 13.10%. Also, the “inhibition rate, Results (%) A-549” value in experiment [2] (Table 1) was determined as 4.36%; in experiment [2] (Table 2 (repeated screening)), 4.01%. Moreover, the “inhibition rate, Results (%) Bel-7402” value came to 12.40% in experiment [3] (Table 1) and 9.84% in experiment [3] (Table 2 (repeated screening)). The “inhibition rate, Results (%) MCF-7” value in experiment [4] (Table 1) turned out to be 36.15%; in experiment [4] (Table 2 (repeated screening)), 30.56%. Besides, the “inhibition rate, Results (%) SMMC-7721” value is on record as 1.03% in experiment [5] (Table 1) and 4.56% in experiment [5] (Table 2 (repeated screening)). Besides, the “inhibition rate, Results (%) HL-60” value in experiment [6] (Table 1) was 13.20%; in experiment [6] (Table 2 (repeated screening)), 4.12%. In addition, the figures for the “inhibition rate, Results (%) Hela” value in experiment [7] (Table 1) and in experiment [7] (Table 2 (repeated screening)) were 53.87% and 56.89%, respectively. For the same compound, the “inhibition rate, Results (%) LLC” value is recorded as −1.83% in experiment [8] (Table 1) and −4.65% in experiment [8] (Table 2 (repeated screening)).

Consider `CC(=O)OC12CC(=O)C3CCC(C)C3(CC1C(C)C)O2` (stereo not shown) [Compound 49, Curzerenone acetate], for which the figures for the “inhibition rate, Results (%) U-937” value in experiment [1] (Table 1) and in experiment [1] (Table 2 (repeated screening)) were 78.65% and 75.23%, respectively. Besides, the “inhibition rate, Results (%) A-549” value amounted to 5.36% in experiment [2] (Table 1) and 4.23% in experiment [2] (Table 2 (repeated screening)). Besides, the “inhibition rate, Results (%) Bel-7402” value in experiment [3] (Table 1) is 2.69%; in experiment [3] (Table 2 (repeated screening)) it was 14.02%. Besides, the “inhibition rate, Results (%) MCF-7” value in experiment [4] (Table 1) came out at 0.65%; in experiment [4] (Table 2 (repeated screening)), 1.56%. Also, the “inhibition rate, Results (%) SMMC-7721” value is reported as −11.3% in experiment [5] (Table 1) and −1.78% in experiment [5] (Table 2 (repeated screening)). For the same compound, the “inhibition rate, Results (%) HL-60” value in experiment [6] (Table 1) is on record as 55.35%; in experiment [6] (Table 2 (repeated screening)) it was 57.89%. Besides, the “inhibition rate, Results (%) Hela” value in experiment [7] (Table 1) was 79.8%; in experiment [7] (Table 2 (repeated screening)), 75.65%. Also, the “inhibition rate, Results (%) LLC” value in experiment [8] (Table 1) was −0.15%; in experiment [8] (Table 2 (repeated screening)), 0.12%.

For the compound `CC(C)C1CC23OC1(O)CC(=CO)C2CCC3C` (stereo not shown) [Compound 18, Curcumol monohydroxy compound], the entries for the “inhibition rate, Results (%) U-937” value in experiment [1] (Table 1) and in experiment [1] (Table 2 (repeated screening)) were 70.30% and 69.23%, respectively. Also, the “inhibition rate, Results (%) A-549” value is listed as −2.24% in experiment [2] (Table 1) and −0.32% in experiment [2] (Table 2 (repeated screening)). The “inhibition rate, Results (%) Bel-7402” value in experiment [3] (Table 1) is recorded as 13.58%; in experiment [3] (Table 2 (repeated screening)), 11.23%. Also, the “inhibition rate, Results (%) MCF-7” value in experiment [4] (Table 1) was 57.89%; in experiment [4] (Table 2 (repeated screening)) it was 54.32%. The “inhibition rate, Results (%) SMMC-7721” value in experiment [5] (Table 1) worked out at 13.39%; in experiment [5] (Table 2 (repeated screening)) it was 0.69%. Further, the “inhibition rate, Results (%) HL-60” value is on record as 4.26% in experiment [6] (Table 1) and 7.32% in experiment [6] (Table 2 (repeated screening)). Further, the “inhibition rate, Results (%) Hela” value amounted to 60.32% in experiment [7] (Table 1) and 65.03% in experiment [7] (Table 2 (repeated screening)). For the same compound, the “inhibition rate, Results (%) LLC” value in experiment [8] (Table 1) is on record as 4.18%; in experiment [8] (Table 2 (repeated screening)), 0.22%.

Take `CCCCNC=C1CC2(OC)OC3(CC2C(C)C)C(C)CCC13` (stereo not shown) [Compound 27, Curcumol methyl ether n-butyl amine]: the “inhibition rate, Results (%) U-937” value in experiment [1] (Table 1) is reported as 52.98%; in experiment [1] (Table 2 (repeated screening)) it was 50.98%. Besides, the “inhibition rate, Results (%) A-549” value in experiment [2] (Table 1) is 15.01%; in experiment [2] (Table 2 (repeated screening)) it was 5.23%. The “inhibition rate, Results (%) Bel-7402” value in experiment [3] (Table 1) is given as 4.65%; in experiment [3] (Table 2 (repeated screening)) it was 2.31%. Moreover, the figures for the “inhibition rate, Results (%) MCF-7” value in experiment [4] (Table 1) and in experiment [4] (Table 2 (repeated screening)) were 23.78% and 14.36%, respectively. Besides, the entries for the “inhibition rate, Results (%) SMMC-7721” value in experiment [5] (Table 1) and in experiment [5] (Table 2 (repeated screening)) were 25.94% and 20.36%, respectively. Besides, the “inhibition rate, Results (%) HL-60” value stood at 3.19% in experiment [6] (Table 1) and 5.969% in experiment [6] (Table 2 (repeated screening)). For the same compound, the “inhibition rate, Results (%) Hela” value in experiment [7] (Table 1) is listed as 62.31%; in experiment [7] (Table 2 (repeated screening)), 60.21%. The “inhibition rate, Results (%) LLC” value is reported as −10.89% in experiment [8] (Table 1) and −10.00% in experiment [8] (Table 2 (repeated screening)).

With `CC(C)C1CC23OC1(O)CC(CN1CCNCC1)(N1CCNCC1)C2CCC3C` (stereo not shown) [Compound 41, Curcumol bispiperazine], the “inhibition rate, Results (%) U-937” value in experiment [1] (Table 1) was 8.65%; in experiment [1] (Table 2 (repeated screening)), −1.02%. Also, the “inhibition rate, Results (%) A-549” value in experiment [2] (Table 1) was −2.50%; in experiment [2] (Table 2 (repeated screening)) it was −7.89%. Further, the “inhibition rate, Results (%) Bel-7402” value in experiment [3] (Table 1) was 16.78%; in experiment [3] (Table 2 (repeated screening)), 1.23%. The “inhibition rate, Results (%) MCF-7” value in experiment [4] (Table 1) amounted to 36.45%; in experiment [4] (Table 2 (repeated screening)), 31.28%. Also, the “inhibition rate, Results (%) SMMC-7721” value in experiment [5] (Table 1) is reported as 4.42%; in experiment [5] (Table 2 (repeated screening)) it was 3.12%. Besides, the “inhibition rate, Results (%) HL-60” value in experiment [6] (Table 1) was 6.78%; in experiment [6] (Table 2 (repeated screening)) it was 1.86%. Also, the “inhibition rate, Results (%) Hela” value in experiment [7] (Table 1) amounted to 50.32%; in experiment [7] (Table 2 (repeated screening)), 51.23%. Also, the “inhibition rate, Results (%) LLC” value in experiment [8] (Table 1) is recorded as 30.96%; in experiment [8] (Table 2 (repeated screening)), 23.65%.

For `CC(C)C1CC23OC1(O)CC(C)(O)C2CCC3C` (stereo not shown) [Compound 35, Curcumol monohydroxy compound without double bond], the results for the “inhibition rate, Results (%) U-937” value in experiment [1] (Table 1) and in experiment [1] (Table 2 (repeated screening)) were 7.36% and 0.23%, respectively. The “inhibition rate, Results (%) A-549” value in experiment [2] (Table 1) is 3.89%; in experiment [2] (Table 2 (repeated screening)), 2.77%. The “inhibition rate, Results (%) Bel-7402” value in experiment [3] (Table 1) is reported as 3.65%; in experiment [3] (Table 2 (repeated screening)), 6.78%. For the same compound, the “inhibition rate, Results (%) MCF-7” value is recorded as 3.89% in experiment [4] (Table 1) and 9.87% in experiment [4] (Table 2 (repeated screening)). In addition, the “inhibition rate, Results (%) SMMC-7721” value was found to be 5.23% in experiment [5] (Table 1) and 4.32% in experiment [5] (Table 2 (repeated screening)). The “inhibition rate, Results (%) HL-60” value was 3.12% in experiment [6] (Table 1) and 3.99% in experiment [6] (Table 2 (repeated screening)). The “inhibition rate, Results (%) Hela” value in experiment [7] (Table 1) was found to be 59.88%; in experiment [7] (Table 2 (repeated screening)), 64.01%. The “inhibition rate, Results (%) LLC” value in experiment [8] (Table 1) is 8.97%; in experiment [8] (Table 2 (repeated screening)), 8.23%.

Turning to `CCCCNC=C1CC2(OC)OC3(CC2C(C)C)C(C)CCC13.Cl` (stereo not shown) [Compound 28, Curcumol methyl ether n-butyl amine hydrochloride], the “inhibition rate, Results (%) U-937” value is 59.32% in experiment [1] (Table 1) and 51.23% in experiment [1] (Table 2 (repeated screening)). Further, the “inhibition rate, Results (%) A-549” value in experiment [2] (Table 1) came to 1.23%; in experiment [2] (Table 2 (repeated screening)), 2.31%. Also, the “inhibition rate, Results (%) Bel-7402” value in experiment [3] (Table 1) is given as −2.24%; in experiment [3] (Table 2 (repeated screening)), −0.45%. For the same compound, the “inhibition rate, Results (%) MCF-7” value was 32.15% in experiment [4] (Table 1) and 19.98% in experiment [4] (Table 2 (repeated screening)). Besides, the figures for the “inhibition rate, Results (%) SMMC-7721” value in experiment [5] (Table 1) and in experiment [5] (Table 2 (repeated screening)) were −3.78% and −1.02%, respectively. For the same compound, the “inhibition rate, Results (%) HL-60” value in experiment [6] (Table 1) is given as 2.98%; in experiment [6] (Table 2 (repeated screening)), 4.32%. Further, the “inhibition rate, Results (%) Hela” value in experiment [7] (Table 1) stood at 58.75%; in experiment [7] (Table 2 (repeated screening)), 60.45%. Also, the “inhibition rate, Results (%) LLC” value in experiment [8] (Table 1) is reported as 0.24%; in experiment [8] (Table 2 (repeated screening)) it was 1.23%.
